According to patent publication US9593148B2, “DPP8 and DPP9 peptide inhibitors” (GEORG-AUGUST-UNIVERSITAT GOTTINGEN STIFTUNG OFFENTLICHEN …, priority 2012, dated 2017):
No end group written: not given here.

How the values were obtained:
[1] = target: T1, DPP8 (Homo sapiens, UniProt Q6V1X1); experiment: Kinetics assay, Ki for inhibition of DPP8 (GP-AMC hydrolysis); type: biochemical
T1 construct: made in house; host or cells: Sf9 insect cells (baculovirus)
Protocol: (§1) Enzyme kinetics and the Ki of DPP8 or DPP9 may be determined as follows: 25 nM purified recombinant enzyme (DPP9 or DPP8) are incubated with varying concentrations of GP-AMC ([…] GP-AMC), in TB buffer (20 mM Hepes/KOH pH 7.3, 110 mM potassium acetate, 2 mM Mg acetate, 0.5 mM EGTA), supplemented with 0.2% Tween-20, 1 mM dithiothreitol. Experiments are performed in triplicates. To measure Ki values, for each set of experiments, inhibitory peptides are added to DPP9 or DPP8. Peptide concentrations tested are in the range between 0.04 to 50 μM. Release of AMC from GP-AMC is measured using the Appliskan microplate fluorimeter (Thermo Scientific) with 380 nm (excitation) and 480 nm (emission) filters and the Skanit software, and analysed using the Prism software.
(§2) A&B 25 nM purified recombinant (A) DPP9 or (B) DPP8 were incubated with varying concentrations of the EIL peptide (0, 3.3 μM and 6.6 μM) and tested for hydrolysis of GP-AMC (1000, 500, 250, 125, 0 μM). C. 25 nM DPPIV was tested for the hydrolysis of GP-AMC (500, 250, 125, 0 μM) in the presence of 0 or 13 μM EIL peptide. Fluorescence was measured using the Appliskan microplate fluorimeter (Thermo Scientific) with 380 nm (excitation) and 480 nm (emission) filters and the Skanit software, and analysed using the Prism software. Each experiment was performed at least three times, in replicates of four.

[2] = system: HeLa cells; experiment: MTT proliferation assay of HeLa cells expressing the peptide; type: cell-based, human; details: Ubiquitin-SLRFLYEG-YFP construct, 32 hours after transfection, vs control plasmid or mock
Protocol: To test whether DPP8/9 inhibition effects cell viability, the inventors performed MTT (3-4,5-dimethylthiazol-2-yl)-2,5-diphenyltetrazolium bromide) based assays, which are widely used to measure cell proliferation and growth (e.g. in clinical settings for testing tumor sensitivity to chemotherapeutic agents). This assay involves the conversion of the water soluble MTT to an insoluble formazan. The formazan is then solubilized in 0.1N HCl. Absorbance is then determined at 570 nm. For a prolonged exposure of cells to the allosteric DPP8/9 inhibitor […] (SEQ ID NO: 38), the inventors cloned the peptide into a mammalian expression vector pEYFP-N1 from Clontech. The peptide inhibitor contains a serine at its amino-termini. Thus, to avoid expression of the peptide with a methionine residue at its amino terminus, it was cloned in frame with ubiquitin. Once expressed in cells, the ubiquitin moiety is cleaved by ubiquitin isopeptidases to release the […]-YFP (SEQ ID NO: 38) construct. A control construct was included that lacked the […] (SEQ ID NO: 38) peptide (Ubiquitin-YFP). […] 32 hours after transfection, cells were analyzed via a standard MTT assay.
Briefly, cell media was removed and replaced by 0.5 mg/ml of MTT reagent. […] Absorbance was measured with a microplate fluorimeter. […]

[3] = target: DPPIV (Homo sapiens, UniProt P27487); experiment: GP-AMC hydrolysis by DPPIV in the presence of peptide; type: biochemical; details: concentrations measured up to 50 μM
Sequence of DPPIV (P27487 whole entry): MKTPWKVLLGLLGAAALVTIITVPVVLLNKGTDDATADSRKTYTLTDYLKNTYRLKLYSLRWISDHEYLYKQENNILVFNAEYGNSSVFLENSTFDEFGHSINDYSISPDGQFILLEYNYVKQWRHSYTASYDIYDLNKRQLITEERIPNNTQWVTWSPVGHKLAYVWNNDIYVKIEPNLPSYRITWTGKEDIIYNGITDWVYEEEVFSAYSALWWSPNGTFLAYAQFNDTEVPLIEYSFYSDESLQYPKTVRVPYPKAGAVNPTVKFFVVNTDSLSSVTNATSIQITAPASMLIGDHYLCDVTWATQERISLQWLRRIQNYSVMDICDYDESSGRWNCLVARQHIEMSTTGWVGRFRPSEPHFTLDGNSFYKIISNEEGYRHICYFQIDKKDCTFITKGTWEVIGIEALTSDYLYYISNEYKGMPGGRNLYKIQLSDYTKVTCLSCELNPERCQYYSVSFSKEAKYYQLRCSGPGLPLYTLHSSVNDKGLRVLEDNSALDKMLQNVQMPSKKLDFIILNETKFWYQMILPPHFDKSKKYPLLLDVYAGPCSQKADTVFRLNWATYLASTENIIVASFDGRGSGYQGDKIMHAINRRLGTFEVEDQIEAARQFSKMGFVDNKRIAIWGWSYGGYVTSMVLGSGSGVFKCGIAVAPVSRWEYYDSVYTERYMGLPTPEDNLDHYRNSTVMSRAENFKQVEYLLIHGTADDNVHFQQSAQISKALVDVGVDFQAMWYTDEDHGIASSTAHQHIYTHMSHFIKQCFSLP
Protocol: Preferably, the peptide is capable of inhibiting the activity by wild-type DPP9 (SEQ ID NO: 6) to a level of 30 to 5%, 29 to 5%, 28 to 5%, 27 to 5%, 26 to 5%, 25 to 5%, 24 to 5%, 23 to 5%, 22 to 5%, 21 to 5%, 20 to 5%, 19 to 5%, 18 to 5%, 17 to 5%, 16 to 5%, 15 to 5%, 14 to 5%, 13 to 5%, 12 to 5%, 11 to 5%, 10 to 5%, 9 to 5%, 8 to 5%, such as 7.5 to 5% of the activity of wild-type DPP9 (SEQ ID NO: 6) if not inhibited. […] Release of AMC from GP-AMC is measured using the Appliskan microplate fluorimeter (Thermo Scientific) with 380 nm (excitation) and 480 nm (emission) filters and the Skanit software, and analysed using the Prism software.
as §2

[4] = target: T2, DPP9 (Homo sapiens, UniProt Q86TI2); experiment: Inhibition of GP-AMC hydrolysis by purified recombinant DPP9 at a single peptide concentration; type: biochemical; details: 25 nM DPP9, 0.2 mM GP-AMC, 10 μM peptide; DPP9 alone = 100.3
T2 construct: made in house; host or cells: Sf9 insect cells (baculovirus)
T2 sequence (Q86TI2 1-892 isoform Q86TI2-2): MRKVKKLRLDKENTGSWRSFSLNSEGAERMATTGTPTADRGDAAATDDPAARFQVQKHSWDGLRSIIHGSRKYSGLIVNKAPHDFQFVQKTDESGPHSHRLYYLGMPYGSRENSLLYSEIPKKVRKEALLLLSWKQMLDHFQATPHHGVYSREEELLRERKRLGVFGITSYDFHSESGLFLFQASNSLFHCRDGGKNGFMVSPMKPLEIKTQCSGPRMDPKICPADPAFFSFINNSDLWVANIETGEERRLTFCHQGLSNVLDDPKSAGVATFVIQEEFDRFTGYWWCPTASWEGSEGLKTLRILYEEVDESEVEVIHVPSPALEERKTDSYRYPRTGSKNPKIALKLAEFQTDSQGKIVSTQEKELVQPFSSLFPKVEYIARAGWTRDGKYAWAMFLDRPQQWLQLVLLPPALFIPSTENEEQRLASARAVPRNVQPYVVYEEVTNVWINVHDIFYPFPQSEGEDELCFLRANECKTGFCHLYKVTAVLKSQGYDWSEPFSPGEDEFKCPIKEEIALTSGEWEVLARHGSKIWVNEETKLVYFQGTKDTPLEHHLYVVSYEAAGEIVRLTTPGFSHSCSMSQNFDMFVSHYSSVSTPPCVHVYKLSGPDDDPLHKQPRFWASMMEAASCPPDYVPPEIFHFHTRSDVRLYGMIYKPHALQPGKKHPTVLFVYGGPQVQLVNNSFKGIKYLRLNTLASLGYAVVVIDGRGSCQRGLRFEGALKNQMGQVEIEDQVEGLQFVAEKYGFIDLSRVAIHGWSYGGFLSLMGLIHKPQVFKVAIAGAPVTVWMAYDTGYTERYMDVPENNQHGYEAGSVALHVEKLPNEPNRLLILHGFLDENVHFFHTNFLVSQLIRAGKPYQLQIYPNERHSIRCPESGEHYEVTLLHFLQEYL
Protocol: Accordingly, the peptide is capable of inhibiting the activity of wild-type DPP9 (SEQ ID NO: 6) to a level of 35 to 5% of the activity of wild-type DPP9 (SEQ ID NO: 6) if not inhibited, as determined in an assay using 25 nM purified DPP9, 0.2 mM GP-AMC, and 14 μM of the peptide to be tested, in TB buffer (20 mM Hepes/KOH pH 7.3, 110 mM potassium acetate, 2 mM Mg acetate, 0.5 mM EGTA), supplemented with 0.2% Tween-20, 1 mM dithiothreitol. Release of AMC from GP-AMC is measured using the Appliskan microplate fluorimeter (Thermo Scientific) with 380 nm (excitation) and 480 nm (emission) filters and the Skanit software, and analysed using the Prism software.
(§3) Kinetics assays: Purified recombinant DPP9 (25 nM) was incubated with varying concentrations of GP-AMC, in TB supplemented with 0.2% Tween-20, 1 mM ditiothreitol. For inhibition assays, inhibitory peptides were added directly to the reaction mixture. For activation by SUMO 0.2 mg/ml BSA, was added to the buffer to prevent non specific binding. DPP9 were incubated with 2.5 μM of either SUMO1, SUMO1 E67A, SUMO2 for 2 hour on ice prior to the assay. Alternatively DPP9 was incubated with 1 μM of RanGAP or RanGAP modified with either SUMO1 or SUMO2 for 2 hours prior to the assay. Fluorescence was measured using the Appliskan microplate fluorimeter (Thermo Scientific) with 380 nm (excitation) and 480 nm (emission) filters and the Skanit software, and analysed using the Prism software. Each experiment was performed at least three times, in replicates of four.
To improve the inhibition of DPP9, the inventors tested several peptide libraries composed of truncated variants of the EIL peptide (>80% pure, ordered from Genescript). These peptides were incubated with recombinant DPP9 and analysed GP-AMC hydrolysis. AMC release was then compared to samples containing either DPP9 alone, or the EIL peptide.

[5] = target: T2, DPP9; experiment: Kinetics assay, Ki for inhibition of DPP9 (GP-AMC hydrolysis); type: biochemical
Protocol: as §1, §2, §3

[6] = system: HeLa cells; experiment: Cytosolic prolyl peptidase activity of HeLa cells treated with peptide alone or with Pep-1; type: cell-based, human; details: 5 μM peptide, 30 min, also in the absence of carrier peptide Pep-1
Protocol: In another experiment, HeLa cells were treated for 30 minutes with either 5 μM […] (SEQ ID NO: 38) alone or in complex with the carier peptide Pep-1. Cells were then typsinized and cytosolic extracts were prepared and tested for cleavage of the model substrate GP-AMC. Upper panel: […] (SEQ ID NO: 38) was allowed to form a complex with carrier peptide Pep-1 at a molar ratio of 1:10 (cargo:carrier) in FCS free DMEM for 30 min at 37° C. Lower panel: As a comparison, the inhibitory peptide […] was used also in the absence of carrier peptide, at the same concentration. For control, the solvent DMSO was used. These mixtures were overlaid onto HeLa cells allowing the entry for 30 minutes at 37° C. Cells were then trypsinized and lysed in TB buffer containing 0.2% Tween. After ultracentrifugation, the cytosolic extract were probed for DPP activity using […] of the fluorogenic substrate GP-AMC. Each experiment was performed in triplicates.

[7] = system: HEK293 cells; experiment: Cytosolic prolyl peptidase activity of HEK293 cells treated with peptide plus carrier Peptide 1; type: cell-based, human; details: 5 μM peptide with 100 μM Peptide 1, 30 min, 5 μg extract, 500 μM GP-AMC
Protocol: Cells were incubated for 30 minutes with 0 μM, 5 μM or 10 μM […] (SEQ ID NO: 40) and 100 μM carrier pep-1. Cytosolic extracts of cells (5 μg) were then tested for hydrolysis of 0.5 mM GP-AMC.
The inventors tested whether the inhibitory peptides can be inserted into cells. For this purpose the inventors established a method using a well characterized carrier peptide: Peptide 1 ([…]; SEQ ID NO: 48), in combination with […] (SEQ ID NO: 40). To test for effective inhibition, the inventors measured for hydrolysis of an artificial DPP8 and DPP9 substrate: GP-AMC, specifically in cytosolic extracts. For this, 5 μM or 10 μM of […] (SEQ ID NO: 40) were incubated with 100 μM Peptide 1, at 37° C. for 30 minutes, in […] DMEM without FCS, supplemented with glutamine and antibiotics. Once a complex was formed between the […] (SEQ ID NO: 40) and peptide 1, it was added to HEK293 cells (human embryonic kidney cells), grown in 24 well plates (50% confluence), and incubated for 30 minutes at 37° C. Cells were then trypsinized and washed twice with PBS buffer. Cell pellet was shock frozen in liquid nitrogen. […] Fluorescence was measured using the Appliskan microplate fluorimeter (Thermo Scientific) with 380 nm (excitation) and 480 nm (emission) filters and the Skanit software, and analysed using the Prism software.

[8] = target: T3, SUMO1-DPP9 interaction (Homo sapiens, UniProt P63165); experiment: ELISA: competition of SUMO1 binding to immobilized DPP9; details: SUMO1 pre-incubated with varying concentrations of peptide
T3 construct: made in house; DPP9: Sf9 insect cells
T3 sequence (P63165 2-97 limits assumed): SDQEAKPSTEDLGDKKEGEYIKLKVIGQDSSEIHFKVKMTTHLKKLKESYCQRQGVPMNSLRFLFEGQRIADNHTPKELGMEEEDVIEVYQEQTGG
Protocol: A. HA-tagged DPP9 mutants (DPP9V285A, DPP9V287A, DPP9I288A and DPP9V290) were expressed in HEK293T cells and purified using anti-HA beads agarose. Purified DPP9 proteins (input) were then incubated with SUMO1-immobilized beads. Bound DPP9 was eluted and analysed by western blotting using anti HA antibodies. B. Alignment of the amino-acid sequences corresponding to the ‘arms’ of DPP9 (SEQ ID NO: 3), DPP8 (SEQ ID NO: 4) and DPPIV (SEQ ID NO: 5). C A homology model of DPP9 (published by (Park et al., 2008)), shown from the ‘back’ side and the ‘front’ (180° rotation) side, which also reveal the so-called side opening. Color code: the hydrolase domain is dark grey, the eight-bladed propeller is light grey and the extended SUMO-binding-arm is indicated. D. Results of an ELISA assay. […] The SUMO1-peptide mix was then added to immobilized DPP9, and interacting SUMO1 was quantified using SUMO1-specific antibodies.
ELISA: A 96 well plate (Immuno 96 MicroWell™ Solid Plates, Nunc) was coated with 600 ng purified recombinant proteins per well in 100 μl TB, overnight at 4° C. […] Interacting proteins were detected using specific antibodies diluted in ELISA buffer: goat anti DPP9 antibody or anti GMP antibody (SUMO1). […] Absorbance was measured at 420 nm on an Appliskan microplate fluorimeter (Thermo Scientific) and the Skanit software. […]

T1 sequence (Q6V1X1 whole entry): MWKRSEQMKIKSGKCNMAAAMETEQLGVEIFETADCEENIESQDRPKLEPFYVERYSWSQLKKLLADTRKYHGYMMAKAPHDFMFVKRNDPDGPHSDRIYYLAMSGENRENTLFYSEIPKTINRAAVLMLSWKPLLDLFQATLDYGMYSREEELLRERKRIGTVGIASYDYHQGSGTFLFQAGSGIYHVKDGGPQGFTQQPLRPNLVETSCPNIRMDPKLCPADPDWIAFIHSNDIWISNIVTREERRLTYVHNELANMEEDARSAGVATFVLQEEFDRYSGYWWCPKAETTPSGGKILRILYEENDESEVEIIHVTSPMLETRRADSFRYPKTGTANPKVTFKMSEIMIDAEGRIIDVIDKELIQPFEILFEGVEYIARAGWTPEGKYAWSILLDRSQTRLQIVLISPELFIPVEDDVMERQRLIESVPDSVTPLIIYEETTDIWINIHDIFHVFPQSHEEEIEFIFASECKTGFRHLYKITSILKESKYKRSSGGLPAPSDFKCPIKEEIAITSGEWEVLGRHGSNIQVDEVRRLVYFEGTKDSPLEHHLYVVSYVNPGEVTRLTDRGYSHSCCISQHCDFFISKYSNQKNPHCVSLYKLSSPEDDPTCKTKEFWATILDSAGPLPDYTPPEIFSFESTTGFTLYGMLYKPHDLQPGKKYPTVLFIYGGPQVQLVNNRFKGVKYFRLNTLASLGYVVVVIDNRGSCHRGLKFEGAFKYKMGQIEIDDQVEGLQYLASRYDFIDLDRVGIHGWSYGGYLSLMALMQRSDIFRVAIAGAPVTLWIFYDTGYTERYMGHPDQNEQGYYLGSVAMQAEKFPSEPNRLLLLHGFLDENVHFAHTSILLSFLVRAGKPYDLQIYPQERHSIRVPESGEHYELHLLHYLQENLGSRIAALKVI

Substance: H-SLRFLYEG
- Ki [1]: 3600 nM
- fold lower affinity for DPP8 compared to DPP9 [1]: 9 fold
- reduction in cell proliferation [2]: at least 50%
- inhibitory effect towards DPPIV [3]: no inhibitory effect
- % DPP9 activity (Mean) [4]: 10.92%
- fold increased efficiency compared to the EIL peptide (Ki DPP9) [5]: 18.5 fold
- Ki ([5]; read-out: Ki for DPP9): 400 nM
- cytosolic prolyl peptidase activity after exposure of cells [6]: inhibits cytosolic prolyl peptidase activity

Substance: SLRFLYAG
- inhibition of cytosolic prolyl peptidase activity [7]: ~30%

Substance: VEVIHVPSPALEERKTDSYR (listed as Homo sapiens) [DPP9-arm peptide, peptide corresponding to the extended arm of DPP9 (285-304)]
- competition with DPP9 for binding to SUMO1 [8]: competed with DPP9 for binding to SUMO1 in a concentration dependent manner
